Source: the NIST ThermoML archive (doi:10.1021/je060271a)

Conditions: 303.15 K, Liquid, Vibrating tube method

CCCCCC(=O)OCC(COC(=O)CCCCC)(COC(=O)CCCCC)COC(=O)CCCCC [pentaerythritol tetrahexanoate]
Conditions | mass density [kg/m3]
20855 kPa | 1001
20888 kPa | 1001.2
20914 kPa | 1001.2
20942 kPa | 1001.1
20975 kPa | 1001.1
21003 kPa | 1001.2
21057 kPa | 1001.1
21090 kPa | 1001.2
21118 kPa | 1001.3
21151 kPa | 1001.3
21178 kPa | 1001.2
21207 kPa | 1001.4
21241 kPa | 1001.3
21268 kPa | 1001.5
21297 kPa | 1001.3
21331 kPa | 1001.4
21360 kPa | 1001.3
21388 kPa | 1001.4
21422 kPa | 1001.4
21451 kPa | 1001.6
21480 kPa | 1001.5
21514 kPa | 1001.5
21543 kPa | 1001.5
21572 kPa | 1001.4
21607 kPa | 1001.6
21636 kPa | 1001.5
21665 kPa | 1001.5
21701 kPa | 1001.5
21731 kPa | 1001.6
21761 kPa | 1001.6
21796 kPa | 1001.7
21826 kPa | 1001.7
21855 kPa | 1001.7
21885 kPa | 1001.6
21921 kPa | 1001.7
21951 kPa | 1001.7
21981 kPa | 1001.8
22018 kPa | 1001.8
22048 kPa | 1001.8
22079 kPa | 1001.8
22116 kPa | 1001.9
22149 kPa | 1001.8
22180 kPa | 1001.9
22211 kPa | 1002
22242 kPa | 1001.8
22280 kPa | 1001.9
22311 kPa | 1002
22348 kPa | 1002
22379 kPa | 1002
22411 kPa | 1002.1
22442 kPa | 1002
22481 kPa | 1002.1
22513 kPa | 1002
22546 kPa | 1002
22581 kPa | 1002.1
22619 kPa | 1002.2
22651 kPa | 1002.1
22683 kPa | 1002.2
22715 kPa | 1002.2
22754 kPa | 1002.2
22786 kPa | 1002.3
22819 kPa | 1002.3
22858 kPa | 1002.4
22891 kPa | 1002.2
22930 kPa | 1002.3
22964 kPa | 1002.4
22998 kPa | 1002.3
23032 kPa | 1002.4
23072 kPa | 1002.4
23106 kPa | 1002.3
23140 kPa | 1002.4
23181 kPa | 1002.4
23215 kPa | 1002.5
23256 kPa | 1002.4
23291 kPa | 1002.4
23325 kPa | 1002.5
23359 kPa | 1002.5
23398 kPa | 1002.5
24292 kPa | 1003
24323 kPa | 1003
24354 kPa | 1003.1
24390 kPa | 1002.9
24841 kPa | 1003.3
24870 kPa | 1003.4
24905 kPa | 1003.4
24964 kPa | 1003.4
25000 kPa | 1003.5
25312 kPa | 1003.6
25349 kPa | 1003.7
25380 kPa | 1003.6
25410 kPa | 1003.8
25447 kPa | 1003.7
25478 kPa | 1003.7
25518 kPa | 1003.7
25545 kPa | 1003.9
25582 kPa | 1003.9
25614 kPa | 1003.7
25643 kPa | 1003.8
25916 kPa | 1003.9
25947 kPa | 1003.9
25973 kPa | 1004.1
26004 kPa | 1004
26030 kPa | 1004.2
26056 kPa | 1004
26088 kPa | 1004.1
26114 kPa | 1004.1
26140 kPa | 1004.1
26167 kPa | 1004.2
26199 kPa | 1004.1
26225 kPa | 1004.2
26258 kPa | 1004.3
26285 kPa | 1004.1
26312 kPa | 1004.2
26339 kPa | 1004.2
26371 kPa | 1004.2
26399 kPa | 1004.2
26427 kPa | 1004.2
26460 kPa | 1004.3
26488 kPa | 1004.3
26520 kPa | 1004.3
26545 kPa | 1004.4
26569 kPa | 1004.3
26593 kPa | 1004.4
26623 kPa | 1004.3
26648 kPa | 1004.2
26672 kPa | 1004.4
26701 kPa | 1004.4
26726 kPa | 1004.3
26751 kPa | 1004.5
26776 kPa | 1004.4
26806 kPa | 1004.4
26830 kPa | 1004.4
26856 kPa | 1004.5
26885 kPa | 1004.5
26910 kPa | 1004.5
26936 kPa | 1004.7
26966 kPa | 1004.6
26991 kPa | 1004.4
27016 kPa | 1004.6
27041 kPa | 1004.7
27071 kPa | 1004.6
27097 kPa | 1004.6
27127 kPa | 1004.5
27152 kPa | 1004.5
27178 kPa | 1004.7
27208 kPa | 1004.8
27234 kPa | 1004.7
27260 kPa | 1004.7
27291 kPa | 1004.6
27317 kPa | 1004.6
27343 kPa | 1004.7
27369 kPa | 1004.9
27400 kPa | 1004.9
27426 kPa | 1004.8
27458 kPa | 1004.7
27484 kPa | 1004.8
27511 kPa | 1004.8
27537 kPa | 1004.8
27564 kPa | 1004.8
27595 kPa | 1004.9
27621 kPa | 1004.9
27654 kPa | 1005
27682 kPa | 1004.9
27708 kPa | 1005
27734 kPa | 1004.9
27761 kPa | 1005
27793 kPa | 1005
27820 kPa | 1005.1
27852 kPa | 1005.1
27879 kPa | 1005.1
27906 kPa | 1005
27938 kPa | 1005
27965 kPa | 1005.2
27993 kPa | 1005.2
28027 kPa | 1005.2
28056 kPa | 1005
28083 kPa | 1005.1
28110 kPa | 1005.1
28143 kPa | 1005.1
28171 kPa | 1005.3
28199 kPa | 1005.3
28227 kPa | 1005.2
28260 kPa | 1005.2
28288 kPa | 1005.2
28317 kPa | 1005.3
28351 kPa | 1005.4
28379 kPa | 1005.3
28409 kPa | 1005.3
28443 kPa | 1005.3
28471 kPa | 1005.3
28500 kPa | 1005.4
28535 kPa | 1005.4
28564 kPa | 1005.4
28594 kPa | 1005.5
28658 kPa | 1005.5
28687 kPa | 1005.5
28718 kPa | 1005.5
28743 kPa | 1005.5
28769 kPa | 1005.6
28800 kPa | 1005.6
28826 kPa | 1005.5
28851 kPa | 1005.6
28877 kPa | 1005.6
28909 kPa | 1005.6
29460 kPa | 1006.1
29484 kPa | 1005.9
29506 kPa | 1005.9
29534 kPa | 1006
29556 kPa | 1006
29580 kPa | 1006
29607 kPa | 1006
29630 kPa | 1006
29658 kPa | 1006.1
29682 kPa | 1006.1
29705 kPa | 1006.1
29729 kPa | 1006
29756 kPa | 1006
29780 kPa | 1006.1
29804 kPa | 1006.2
29831 kPa | 1006.2
29856 kPa | 1006.1
29879 kPa | 1006.1
29902 kPa | 1006.2
29931 kPa | 1006.1
29954 kPa | 1006.1
29983 kPa | 1006.2
30006 kPa | 1006.3
30030 kPa | 1006.3
30059 kPa | 1006.2
30083 kPa | 1006.3
30108 kPa | 1006.3
30132 kPa | 1006.3
30161 kPa | 1006.4
30185 kPa | 1006.4
30209 kPa | 1006.2
30233 kPa | 1006.3
30262 kPa | 1006.3
30287 kPa | 1006.3
31166 kPa | 1006.8
31197 kPa | 1006.8
31224 kPa | 1006.8
31255 kPa | 1006.9
31283 kPa | 1006.9
31310 kPa | 1006.9
31337 kPa | 1006.9
31370 kPa | 1007
31398 kPa | 1007
31426 kPa | 1007
31459 kPa | 1006.9
31483 kPa | 1007.1
31506 kPa | 1007.1
31534 kPa | 1006.9
31556 kPa | 1007.1
31580 kPa | 1007
31608 kPa | 1007.1
31632 kPa | 1007.1
31656 kPa | 1007.2
31683 kPa | 1007.1
31701 kPa | 1007.2
31719 kPa | 1007.1
31737 kPa | 1007.2
31758 kPa | 1007.1
31777 kPa | 1007.2
31795 kPa | 1007.2
31814 kPa | 1007.4
31835 kPa | 1007.2
31853 kPa | 1007.2
31875 kPa | 1007.2
31893 kPa | 1007.3
31911 kPa | 1007.3
31933 kPa | 1007.2
31951 kPa | 1007.3
31969 kPa | 1007.3
31990 kPa | 1007.5
32009 kPa | 1007.4
32027 kPa | 1007.3
32049 kPa | 1007.3
32068 kPa | 1007.3
32086 kPa | 1007.4
32104 kPa | 1007.4
32127 kPa | 1007.5
32145 kPa | 1007.4
32167 kPa | 1007.4
32186 kPa | 1007.4
32204 kPa | 1007.4
32226 kPa | 1007.5
32244 kPa | 1007.4
32403 kPa | 1007.6
32426 kPa | 1007.6
